Values joined by “and” are separate entries in the source; they are usually repeats but may differ in a detail not shown here. Equal entries are not always repeated. Where two headings read alike, the source gives them in different places.
How the values were obtained:
[1] = molecular target: T1, rat NMBR (Rattus norvegicus, UniProt P24053); assay: [3H]Inositol phosphate generation, rNMBR/BALB cells; format: cell-based; details: read-out: EC50 Rat NMBR rNMBR/BALB; [3H]IP production, 60 min, 37°C
T1 sequence (P24053 1-390): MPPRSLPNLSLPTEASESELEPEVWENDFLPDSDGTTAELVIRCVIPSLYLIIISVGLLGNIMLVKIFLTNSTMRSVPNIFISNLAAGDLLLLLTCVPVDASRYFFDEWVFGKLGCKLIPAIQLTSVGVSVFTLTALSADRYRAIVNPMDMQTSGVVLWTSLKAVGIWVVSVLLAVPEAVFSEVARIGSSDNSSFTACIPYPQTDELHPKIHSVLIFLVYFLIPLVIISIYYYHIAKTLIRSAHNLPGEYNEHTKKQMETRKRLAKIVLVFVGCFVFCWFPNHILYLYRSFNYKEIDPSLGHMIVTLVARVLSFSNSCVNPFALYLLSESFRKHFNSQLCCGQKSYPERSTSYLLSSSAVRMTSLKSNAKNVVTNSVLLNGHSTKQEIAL

[2] = molecular target: T2, rat BRS-3 (Rattus norvegicus, UniProt Q8K418); assay: [3H]Inositol phosphate generation, rBRS-3/BALB cells; format: cell-based; details: for EC50: read-out: EC50 Rat BRS-3 rBRS-3/BALB, [3H]IP production, 60 min, 37°C
T2 sequence (Q8K418 1-399): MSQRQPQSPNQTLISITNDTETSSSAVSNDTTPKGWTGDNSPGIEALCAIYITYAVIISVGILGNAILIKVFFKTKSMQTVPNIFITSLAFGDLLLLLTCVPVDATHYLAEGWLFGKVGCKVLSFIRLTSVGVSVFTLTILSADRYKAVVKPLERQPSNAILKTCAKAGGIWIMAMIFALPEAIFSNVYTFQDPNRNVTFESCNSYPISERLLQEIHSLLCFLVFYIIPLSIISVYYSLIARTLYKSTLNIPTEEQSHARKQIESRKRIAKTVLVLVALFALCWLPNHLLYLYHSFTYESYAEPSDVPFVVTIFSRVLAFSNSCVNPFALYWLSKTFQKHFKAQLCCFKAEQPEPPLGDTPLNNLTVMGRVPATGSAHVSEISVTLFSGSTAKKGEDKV

[3] = molecular target: T3, human BRS-3 (Homo sapiens, UniProt P32247); assay: [3H]Inositol phosphate generation; format: cell-based; details: for EC50: read-out: EC50 Human BRS-3 hBRS-3/BALB, [3H]IP production, 60 min, 37°C
T3 sequence (P32247 1-399): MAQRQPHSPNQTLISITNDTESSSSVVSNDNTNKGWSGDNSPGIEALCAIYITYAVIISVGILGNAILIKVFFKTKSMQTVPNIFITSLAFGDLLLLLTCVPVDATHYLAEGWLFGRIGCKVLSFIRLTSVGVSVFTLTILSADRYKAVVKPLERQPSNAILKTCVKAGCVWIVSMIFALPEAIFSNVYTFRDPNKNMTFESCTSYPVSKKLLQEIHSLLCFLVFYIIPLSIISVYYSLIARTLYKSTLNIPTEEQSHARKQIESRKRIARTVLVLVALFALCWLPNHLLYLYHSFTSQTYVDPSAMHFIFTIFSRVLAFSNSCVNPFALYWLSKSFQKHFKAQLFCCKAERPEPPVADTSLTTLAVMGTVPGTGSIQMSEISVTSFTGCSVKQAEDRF

[4] = molecular target: human NMBR (Homo sapiens, UniProt P28336); assay: [3H]Inositol phosphate generation, hNMBR/BALB cells; format: cell-based; details: read-out: EC50 Human NMBR hNMBR/BALB; [3H]IP production, 60 min, 37°C
[5] = molecular target: mouse GRPR (Mus musculus, UniProt P21729); assay: [3H]Inositol phosphate generation, mGRPR/BALB cells; format: cell-based; details: read-out: EC50 Mouse GRPR mGRPR/BALB; [3H]IP production, 60 min, 37°C
[6] = molecular target: T3, human BRS-3; assay: Binding studies, inhibition of 125I-[D-Tyr6,β-Ala11,Phe13,Nle14]Bn-; details: hBRS-3/BALB cells
[7] = molecular target: human GRPR (Homo sapiens, UniProt P30550); assay: [3H]Inositol phosphate generation, hGRPR/BALB cells; format: cell-based; details: read-out: EC50 Human GRPR hGRPR/BALB; [3H]IP production, 60 min, 37°C
[8] = molecular target: rat GRPR (Rattus norvegicus, UniProt P52500); assay: [3H]Inositol phosphate generation, rGRPR/AR42J cells; format: cell-based; details: read-out: EC50 Rat GRPR rGRPR/AR42J; [3H]IP production, 60 min, 37°C
[9] = molecular target: T4, mouse BRS-3 (Mus musculus, UniProt O54798); assay: [3H]Inositol phosphate generation, mBRS-3/BALB cells; format: cell-based; details: for EC50: read-out: EC50 Mouse BRS-3 mBRS-3/BALB, [3H]IP production, 60 min, 37°C
T4 sequence (O54798 1-399): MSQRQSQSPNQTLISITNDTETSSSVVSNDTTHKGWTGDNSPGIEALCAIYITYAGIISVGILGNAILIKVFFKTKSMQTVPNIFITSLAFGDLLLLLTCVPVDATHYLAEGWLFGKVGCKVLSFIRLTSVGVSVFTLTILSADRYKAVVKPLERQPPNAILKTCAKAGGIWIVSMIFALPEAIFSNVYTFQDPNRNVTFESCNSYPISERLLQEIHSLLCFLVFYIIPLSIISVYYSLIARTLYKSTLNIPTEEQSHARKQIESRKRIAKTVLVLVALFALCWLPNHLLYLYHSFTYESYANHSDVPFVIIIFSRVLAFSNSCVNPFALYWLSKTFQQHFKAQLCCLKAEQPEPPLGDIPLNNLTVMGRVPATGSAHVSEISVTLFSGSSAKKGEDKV

[10] = molecular target: T5, mouse NMBR (Mus musculus, UniProt O54799); assay: [3H]Inositol phosphate generation, mNMBR/BALB cells; format: cell-based; details: read-out: EC50 Mouse NMBR mNMBR/BALB; [3H]IP production, 60 min, 37°C
T5 sequence (O54799 1-390): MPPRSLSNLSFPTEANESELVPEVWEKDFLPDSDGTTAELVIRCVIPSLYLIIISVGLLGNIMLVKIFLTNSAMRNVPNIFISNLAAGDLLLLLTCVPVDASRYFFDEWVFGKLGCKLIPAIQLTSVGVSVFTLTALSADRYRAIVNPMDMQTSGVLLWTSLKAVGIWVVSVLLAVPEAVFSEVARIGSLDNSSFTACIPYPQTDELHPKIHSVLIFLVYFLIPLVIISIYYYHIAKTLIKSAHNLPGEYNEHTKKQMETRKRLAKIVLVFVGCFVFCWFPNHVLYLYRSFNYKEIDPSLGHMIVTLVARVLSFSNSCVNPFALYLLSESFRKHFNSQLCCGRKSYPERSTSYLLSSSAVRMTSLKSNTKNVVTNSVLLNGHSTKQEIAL

Sequence of mouse GRPR (P21729 whole entry): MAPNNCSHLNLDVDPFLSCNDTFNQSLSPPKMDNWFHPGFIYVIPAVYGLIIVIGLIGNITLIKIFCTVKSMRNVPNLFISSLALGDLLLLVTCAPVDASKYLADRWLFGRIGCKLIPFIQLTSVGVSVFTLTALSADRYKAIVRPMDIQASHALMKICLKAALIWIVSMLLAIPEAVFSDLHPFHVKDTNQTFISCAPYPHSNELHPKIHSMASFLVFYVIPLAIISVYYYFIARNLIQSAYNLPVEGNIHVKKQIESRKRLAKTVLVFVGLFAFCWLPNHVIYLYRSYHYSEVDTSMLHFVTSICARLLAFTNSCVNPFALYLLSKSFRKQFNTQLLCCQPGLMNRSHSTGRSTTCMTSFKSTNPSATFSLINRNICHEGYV
Sequence of human GRPR (P30550 whole entry): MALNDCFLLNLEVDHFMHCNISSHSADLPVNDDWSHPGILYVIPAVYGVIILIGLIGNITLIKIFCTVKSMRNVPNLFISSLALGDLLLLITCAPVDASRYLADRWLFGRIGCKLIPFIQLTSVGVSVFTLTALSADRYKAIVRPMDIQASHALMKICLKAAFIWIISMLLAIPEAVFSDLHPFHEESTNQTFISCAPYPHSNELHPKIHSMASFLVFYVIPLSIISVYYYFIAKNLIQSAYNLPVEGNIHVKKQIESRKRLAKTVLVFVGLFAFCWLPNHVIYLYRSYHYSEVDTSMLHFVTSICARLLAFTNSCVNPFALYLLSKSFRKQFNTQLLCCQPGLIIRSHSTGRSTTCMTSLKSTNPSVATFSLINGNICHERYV
Sequence of rat GRPR (P52500 whole entry): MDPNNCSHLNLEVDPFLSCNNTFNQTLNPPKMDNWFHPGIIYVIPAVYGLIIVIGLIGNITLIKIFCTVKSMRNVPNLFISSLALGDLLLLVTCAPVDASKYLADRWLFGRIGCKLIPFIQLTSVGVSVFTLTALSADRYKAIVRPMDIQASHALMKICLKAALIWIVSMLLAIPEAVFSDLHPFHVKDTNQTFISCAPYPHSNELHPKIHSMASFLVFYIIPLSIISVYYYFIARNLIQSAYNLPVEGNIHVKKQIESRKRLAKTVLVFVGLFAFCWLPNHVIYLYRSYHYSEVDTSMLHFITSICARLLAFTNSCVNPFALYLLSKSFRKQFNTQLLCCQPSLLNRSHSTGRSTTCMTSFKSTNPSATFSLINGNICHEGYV
Sequence of human NMBR (P28336 whole entry): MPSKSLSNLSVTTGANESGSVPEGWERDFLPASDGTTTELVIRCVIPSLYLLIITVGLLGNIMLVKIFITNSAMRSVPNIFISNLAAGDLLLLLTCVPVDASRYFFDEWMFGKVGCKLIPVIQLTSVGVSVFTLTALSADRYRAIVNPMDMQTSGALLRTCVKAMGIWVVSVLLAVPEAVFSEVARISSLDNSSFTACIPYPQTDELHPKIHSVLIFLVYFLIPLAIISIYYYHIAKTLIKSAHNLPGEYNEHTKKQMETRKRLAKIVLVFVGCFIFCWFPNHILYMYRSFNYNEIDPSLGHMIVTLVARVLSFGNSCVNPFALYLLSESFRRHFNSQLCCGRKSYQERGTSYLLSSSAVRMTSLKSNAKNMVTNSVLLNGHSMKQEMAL

**Q.** How did the EC50 [1] turn out when `Cc1ccc(Oc2cccc(CC(=O)N3CCNc4nc(C(F)(F)F)ccc4[C@H]3CC(=O)O)c2)cn1` [9F, [(5R)-4-((3-[(6-methylpyridin-3-yl)oxy]phenyl)acetyl)-8-(trifluoromethyl)-2,3,4,5-tetrahydro-1H-pyrido[2,3-e][1, 4]diazepin-5-yl]acetic acid] was run?
**A.** > 3000 nM

**Q.** What about the “less potent than MK-5046” value ([2]; rBRS-3/BALB cells) of the same compound?
**A.** 8 fold

**Q.** What about the “lower potency than 9G and 3F” value ([2]; rBRS-3/BALB cells) of the same compound?
**A.** 7.8 fold

**Q.** What about the EC50 [2] of the same compound?
**A.** 295 ± 0.5 nM

**Q.** And the “lower potency than 9G or 9D” value ([3]; hBRS-3/BALB cells)?
**A.** 4.3 fold

**Q.** And the EC50 [3]?
**A.** 39 nM

**Q.** What about the EC50 ([3]; listed as 9 F) of the same compound?
**A.** 39.6 ± 1 nM

**Q.** And the EC50 [4]?
**A.** > 3000 nM

**Q.** And the EC50 [5]?
**A.** > 3000 nM

**Q.** And the “lower affinity compared with 9G” value [6]?
**A.** 1.7-13 fold

**Q.** What about the EC50 [7] of the same compound?
**A.** > 3000 nM

**Q.** And the EC50 [8]?
**A.** > 3000 nM

**Q.** And the “less potent than MK-5046” value ([9]; mBRS-3/BALB cells)?
**A.** 5 fold

**Q.** And the “lower potency compared to 9D or 9G” value ([9]; mBRS-3/BALB cells)?
**A.** 4.3 fold

**Q.** What about the EC50 [9] of the same compound?
**A.** 86.8 ± 0.8 nM

**Q.** And the EC50 [10]?
**A.** > 3000 nM

**Q.** What does the source list for `CC(C)COc1cccc(CC(=O)N2CCNc3nc(C(F)(F)F)ccc3[C@H]2CC(=O)O)c1` [9G, [(5R)-4-([3-(2-methylpropoxy)phenyl]acetyl)-8-(trifluoromethyl)-2,3,4,5-tetrahydro-1H-pyrido[2,3-e][1, 4]diazepin-5-yl]acetic acid]?
**A.** EC50 [1]: > 3000 nM; less potent than MK-5046 ([2]; rBRS-3/BALB cells): 165 fold; EC50 [2]: 37.9 ± 0.8 nM; IC50/ EC50 hBRS-3/BALB ([3]; binding IC50 over [3H]IP EC50, hBRS-3/BALB cells, measure of receptor spareness): 7.6; EC50 [3]: 9 nM; EC50 ([3]; listed as 9 G): 9.2 ± 0.39 nM; EC50 [4]: > 3000 nM; EC50 [5]: > 3000 nM; affinity greater than MK-5046 [6]: 1.5 fold; EC50 [7]: > 3000 nM; EC50 [8]: > 3000 nM; less potent than MK-5046 ([9]; mBRS-3/BALB cells): 3.5–3.8 fold and 4 fold; EC50 [9]: 20.1 ± 0.9 nM; EC50 [10]: > 3000 nM

— paper PMC5461819 (Peptides, 2015)
